Experimental data as given in patent US20160039852A1, “THERAPEUTIC USES OF BISPHOSPHONATES” (THE UNIVERSITY OF SHEFFIELD, priority 2013, published 2016).
Entries after “also recorded” stand apart in the source; their conditions may differ.

Legend:
[1] = system: human mesenchymal stem cells (hMSC); assay: hMSC growth kinetics, cumulative population doublings with time in culture; format: cell-based
[2] = system: human mesenchymal stem cells (hMSC); assay: Expression of osteogenic and adipogenic differentiation markers in hMSC; format: cell-based; details: CBFA-1, OPN, ALP, OC, LPL, PPAR-γ normalised to L-32; 14 days supplements
[3] = system: 5T33 Multiple Myeloma line; assay: γH2AX DNA damage foci in 5T33 multiple myeloma line after irradiation; format: cell-based, murine; details: 1 μM Zol for 3 days prior to 1Gy, γH2AX 4 h later
Protocol: 5T33MM were exposed to 1 μM Zol for 3 days prior to irradiation at 1Gy and assessment of γH2AX 4 h later (Zol). UI, are hMSC non irradiated, PBS, are hMSC irradiated in absence of Zol. Data are expressed as mean±SEM and were analysed by one way ANOVA and Bonferroni post-test for multiple comparison *p<0.05, **p<0.01, ***p<0.001
DNA damage was induced by exposing hMSC to ^137Cs Gamma source. Cells were washed with PBS and fixed with 4% Para-formaldehyde for 15mins. Cells were then washed with PBS permeabilized with 0.5% Triton-X (Sigma, UK) for 2mins and blocked with 5% normal goat serum (DAKO, Glostrup, Denmark) in PBS for 1 hr. This was followed by incubation with primary antibody, anti-phospho histone H2AX (Ser139) (Millipore, Massachusetts, USA) used at 1:800 in 5% normal goat serum, overnight at 4° C. Cells were then washed in PBS and incubated in secondary Anti mouse IgG Fluorescein Isothiocyanate (FITC) conjugated (Insight Biotechnology, Santa Cruz, USA) at 1:200 in PBS for 1 hour at room temperature. The cover-slips were mounted on slides with mounting media (VectaShield) containing 4′,6-diamidino-2-phenylindole (DAPI) to stain the nuclei. […] Five to seven fields consisting of 25 cells in total were randomly selected from a tile scan (20×) and individual cells viewed at 63× were then scored for γH2AX DNA damage foci using ImageJ 1.45 software (http://rsbweb.nih.gov/ij/).

[4] = system: mTOR pathway; assay: Western blot of mTOR pathway effectors in osteosarcoma line MG63; format: cell-based, human; details: MG63, Zol (1 μM) for 72 h, n=3
Protocol: (B) A representative example of human mesenchymal stem cells (MSC) and human osteosarcoma cell line MG63 cultured in presence or absence of Zol (1 μM) for 72 h and assessed for the expression of phosphorylated (Ser 473) AKT, AKT, phosphorylated p70S6K p70S6K and GAPDH by western blot;
Protein lysates (50 μg) were diluted in equal volume of 2× Laemmli buffer (Gibco) containing Dithiothreitol (DTT, Sigma,UK). The samples were heated at 95° C. for 5 minutes and loaded on a 12% Tris-glycine gel. After electro-blotting, membranes were blocked with 5% Bovine serum albumin (BSA) in 0.1% Tween 20 in PBS (PBS-T) for detection of glyceraldehyde-3-phosphate dehydrogenase (GAPDH) and 5% dry milk in PBS-T for detection of unprenylated RAP1A (Santacruz Biotechnology, Santa Cruz, USA). […] Detection was carried out using enhanced chemi-luminescence plus ECL reaction kit (GE Healthcare, Buckinghamshire, UK) and quantification of protein expression was carried out using image J software.
To test this, the inventors assessed the phosphorylation state of two effectors downstream of TORC1 and TORC2, p-P70S6K and pAKT (Ser473) respectively (FIG. 7A), in hMSC in presence or absence of Zol. […]

[5] = system: normal human dermal fibroblasts; assay: Human dermal fibroblast growth, cumulative population doublings; format: cell-based
Excerpt: Cultures (n=3) grown in PBS senesced after 17-21 population doublings (PDs) (square symbols) whereas cultures grown in presence of Zol were still proliferating after 27-34 PDs (triangle symbols).

[6] = system: intestinal crypt and villi; assay: Murine intestine regeneration following irradiation; format: in vivo, C57BL6/J mice; details: Zol 125 μg/kg i.p. 3 days prior to 9Gy
Protocol: Mice (C57BL6/J) were injected with either Zoledronate (single dose, i.p.,125 μg/kg) or PBS. On day 3 post-injection, Mice were exosed to whole body irradiation (9Gy; n=3/group) using 137Cs Gamma source. Within 24 hours from irradiation systemic bone marrow transplantation was performed to prevent myelotoxicity. mice were sacrificed 4 days post-irradiation for histological analysis of
Intestinal tissue. At the time of harvest this was divided with a scalpel into duodenum, ileum-jejunum, colon and rectum, and each region was further cut into 0.5 cm pieces that were placed in histological cassettes and stored in 70% ethanol prior to embedding. Tissues were paraffin embedded and sectioned at 3-5 μm thickness and mounted onto […] coated glass microscope slides. The slides were de-waxed in xylene (BDH, Leister, UK) and rehydrated by passing through a series of ethanol dilutions. The nuclei were stained by placing in Gill's haematoxylin (Sigma, Poole, UK), washed with water followed by staining of cytoplasm in alcoholic eosin (Sigma, Poole, UK) and washed. Slides were dehydrated through a series of graded alcohols and cleared in xylene for 3 minutes prior to mounting with DPX and coverslip to examine under microscope. Stained tissue sections were scanned on the Aperio Slide Scanner (Leica Biosystems, Newcastle, UK). To obtain villi length and crypt depth, images were analysed on the Aperio ImageScope Software (v11.2.0.780) and using the ruler tool, measurements were taken on a surface of 0.525 mm^2 at 3 different levels.

[7] = assessed 4 days later, n=3/group

O=P(O)(O)C(O)(Cn1ccnc1)P(=O)(O)O [Zoledronate]
population doublings after which cultures were still proliferating ([1]; hMSC grown in presence of Zol (1 μM), PBS cultures senesced after 21-27 PDs, n=3): 29-36 PDs | ability of hMSC to proliferate and differentiate following irradiation ([1]; irradiated at 3 Gy, Zol for 3 days, washed off 12 h later): rescues hMSCs ability to proliferate and differentiate | hMSC life span / time of proliferation in culture ([1]; versus PBS control, listed as Zol): extension of life span; also recorded: proliferated for a longer time than control cells | expression of osteogenic and adipogenic differentiation markers [2]: increased | DNA repair capacity (γH2AX foci) [3]: does not enhance the DNA repair capacity | p-P70S6K [4]: no significant difference | pAKT (Ser473) [4]: no significant difference | lifespan of normal human dermal fibroblasts [5]: extends lifespan | population doublings after which cultures were still proliferating ([5]; human dermal fibroblasts in presence of Zol, PBS cultures senesced after 17-21 PDs, n=3): 27-34 PDs | protection of intestinal crypt and villi following irradiation [6]: protects intestinal crypt and villi | intestinal crypt depth [6, 7]: improved | villi length [6, 7]: improved
